Assay: Initial experiments on chlorthalidone API in solution
Type: physicochemical
Conditions: without excipients; would agglomerate and cake
Text: Accordingly, for stabilizing the chlorthalidone in a stabilized suspension, the inventors contemplated combining the chlorthalidone with select excipients. These excipients include at least a solubilizing and/or a wetting agent, at least one suspending agent, at least one viscosity increasing agent or at least one anti-caking agent, and water. The suspension may also further include an anti-foaming agent, at least one antimicrobial, and at least one sweetening agent.

- stability of the API in solution: not stable in solution
Structure (SMILES): NS(=O)(=O)c1cc(C2(O)NC(=O)c3ccccc32)ccc1Cl (stereo not shown) [chlorthalidone, Chlorthalidone]
